These results are taken from patent US9549967B2, “Regulation of sodium channels by PLUNC proteins” (The University of North Carolina at Chapel Hill, priority 2009, dated 2017).

Assay [1] concerns the target T1, ENaC (Homo sapiens, UniProt P37088+P51168+P51170).
T1 construct: endogenous in cells; host or cells: primary human bronchial epithelial cultures
T1 sequence (P37088 1-669): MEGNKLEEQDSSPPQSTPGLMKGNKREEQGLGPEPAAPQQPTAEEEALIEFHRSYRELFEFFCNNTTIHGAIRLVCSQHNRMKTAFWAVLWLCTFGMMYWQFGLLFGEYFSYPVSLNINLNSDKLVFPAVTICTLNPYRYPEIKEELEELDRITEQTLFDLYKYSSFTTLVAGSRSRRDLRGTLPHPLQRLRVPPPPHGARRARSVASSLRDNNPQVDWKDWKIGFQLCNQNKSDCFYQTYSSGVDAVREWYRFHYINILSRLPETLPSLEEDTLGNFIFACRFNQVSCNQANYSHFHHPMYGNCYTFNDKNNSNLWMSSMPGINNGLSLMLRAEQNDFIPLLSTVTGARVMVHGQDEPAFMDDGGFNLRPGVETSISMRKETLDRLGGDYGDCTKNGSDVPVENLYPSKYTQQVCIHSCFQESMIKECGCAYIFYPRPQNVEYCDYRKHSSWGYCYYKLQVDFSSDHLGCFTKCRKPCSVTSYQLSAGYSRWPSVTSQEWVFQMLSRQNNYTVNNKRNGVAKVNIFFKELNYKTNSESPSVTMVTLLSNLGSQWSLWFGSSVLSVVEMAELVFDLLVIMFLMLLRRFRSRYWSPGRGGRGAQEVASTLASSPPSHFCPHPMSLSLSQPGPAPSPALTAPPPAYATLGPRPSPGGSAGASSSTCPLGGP
T1 sequence (P51168 1-640): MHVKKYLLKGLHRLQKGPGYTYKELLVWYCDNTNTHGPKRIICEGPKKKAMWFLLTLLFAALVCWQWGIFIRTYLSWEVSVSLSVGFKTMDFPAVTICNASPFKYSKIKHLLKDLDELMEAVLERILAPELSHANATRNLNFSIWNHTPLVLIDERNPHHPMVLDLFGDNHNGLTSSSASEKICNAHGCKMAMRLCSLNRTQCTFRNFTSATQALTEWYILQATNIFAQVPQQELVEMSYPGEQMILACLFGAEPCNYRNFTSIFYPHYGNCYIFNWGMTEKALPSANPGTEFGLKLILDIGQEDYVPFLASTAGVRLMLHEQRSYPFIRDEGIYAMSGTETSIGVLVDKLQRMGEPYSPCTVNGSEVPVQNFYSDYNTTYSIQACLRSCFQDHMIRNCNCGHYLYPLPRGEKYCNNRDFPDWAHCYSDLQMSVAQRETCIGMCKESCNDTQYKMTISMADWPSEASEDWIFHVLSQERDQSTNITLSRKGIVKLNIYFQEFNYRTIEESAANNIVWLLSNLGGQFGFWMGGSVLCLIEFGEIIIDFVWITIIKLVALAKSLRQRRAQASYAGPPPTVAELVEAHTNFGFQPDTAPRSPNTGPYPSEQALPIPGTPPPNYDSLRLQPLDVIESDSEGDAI
T1 sequence (P51170 1-649): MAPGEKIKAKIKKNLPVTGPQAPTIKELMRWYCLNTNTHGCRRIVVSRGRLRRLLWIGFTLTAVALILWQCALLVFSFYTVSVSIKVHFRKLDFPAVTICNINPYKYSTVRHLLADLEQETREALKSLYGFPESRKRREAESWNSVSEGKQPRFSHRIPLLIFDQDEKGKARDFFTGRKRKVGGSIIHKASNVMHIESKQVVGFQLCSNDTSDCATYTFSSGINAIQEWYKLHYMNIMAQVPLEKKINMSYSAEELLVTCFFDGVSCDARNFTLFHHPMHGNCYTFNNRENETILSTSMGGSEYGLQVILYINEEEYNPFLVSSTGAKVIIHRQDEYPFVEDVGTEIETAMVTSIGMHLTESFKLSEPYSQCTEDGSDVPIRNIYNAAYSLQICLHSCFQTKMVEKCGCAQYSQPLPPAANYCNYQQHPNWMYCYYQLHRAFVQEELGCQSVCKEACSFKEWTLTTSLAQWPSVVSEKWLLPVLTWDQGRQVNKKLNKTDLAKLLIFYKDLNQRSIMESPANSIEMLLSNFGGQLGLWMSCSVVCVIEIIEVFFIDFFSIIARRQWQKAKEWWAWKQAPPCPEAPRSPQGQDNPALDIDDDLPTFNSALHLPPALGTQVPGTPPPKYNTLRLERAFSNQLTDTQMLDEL
Briefly: Transepithelial electrical resistance of human bronchial epithelial cultures (EVOM). Type of assay: cell-based. As to conditions: washed cultures; 50 ng/ml SPLUNC1 for 30 min or amiloride; effects not additive. An excerpt:
(§1) Tissue procurement and cell culture: Cells were harvested by enzymatic digestion from human bronchial tissue as previously described under a protocol approved by the UNC School of Medicine IRB (Tarran et al., J. Gen. Physiol. 127:591 (2006)). Human excess donor lungs and excised recipient lungs were obtained at the time of lung transplantation from portions of main stem or […] bronchi and cells were harvested by enzymatic digestion. All preparations were maintained at an air-liquid interface in a modified bronchial epithelial medium and used 2-5 weeks after seeding on 12 mm T-Clear inserts (Corning Costar) coated with human placental type VI collagen (Sigma). Phosphate buffered saline (PBS) was used for washing human bronchial epithelial culture mucosal surfaces.
(§2) Microelectrode studies. A single-barreled potential difference-sensing electrode was placed in the airway surface liquid by micromanipulator and used in conjunction with a macroelectrode in the serosal solution to measure transepithelial voltage using a voltmeter (World Precision Instruments). […] Transepithelial resistance was routinely measured using the EVOM system (WPI) as previously described (Tarran et al., J. Gen. Physiol. 127:591 (2006)).

The target in assay [2] is T1, ENaC. Briefly: Transepithelial voltage under thin film conditions in human bronchial epithelial cultures (microelectrode). Type of assay: cell-based.
From the text: as §1, §2

The next assay concerns trypsin. The assay can be described thus: Cell-free fluorogenic assay of BGAR-MCA cleavage by trypsin. It is filed as biochemical. As to conditions: 2 U/ml aprotinin. As for the experimental part: (§3) For cell-free assays, reactions were carried out in 50 μl Ringer in a 96 well plate format with 100 μM BGAR-MCA. To measure endogenous protease activity in human bronchial epithelial cultures, 30 μl Ringer with 100 μM BGAR-MCA were placed directly onto the mucosal surfaces of human bronchial epithelial cultures grown on 12 mm T-clear inserts and the cultures were assayed in 12 well plates.

For another assay, the system named is serine proteases. The assay can be described thus: Endogenous protease activity (BGAR-MCA cleavage) on mucosal surfaces of human bronchial epithelial cultures. It is filed as cell-based. Here is the method:
as §3

A further assay deals with T2, CFTR (Homo sapiens, UniProt P13569).
T2 construct: expressed in transfected cells; host or cells: Xenopus laevis oocytes
T2 sequence (P13569 whole entry, species assumed): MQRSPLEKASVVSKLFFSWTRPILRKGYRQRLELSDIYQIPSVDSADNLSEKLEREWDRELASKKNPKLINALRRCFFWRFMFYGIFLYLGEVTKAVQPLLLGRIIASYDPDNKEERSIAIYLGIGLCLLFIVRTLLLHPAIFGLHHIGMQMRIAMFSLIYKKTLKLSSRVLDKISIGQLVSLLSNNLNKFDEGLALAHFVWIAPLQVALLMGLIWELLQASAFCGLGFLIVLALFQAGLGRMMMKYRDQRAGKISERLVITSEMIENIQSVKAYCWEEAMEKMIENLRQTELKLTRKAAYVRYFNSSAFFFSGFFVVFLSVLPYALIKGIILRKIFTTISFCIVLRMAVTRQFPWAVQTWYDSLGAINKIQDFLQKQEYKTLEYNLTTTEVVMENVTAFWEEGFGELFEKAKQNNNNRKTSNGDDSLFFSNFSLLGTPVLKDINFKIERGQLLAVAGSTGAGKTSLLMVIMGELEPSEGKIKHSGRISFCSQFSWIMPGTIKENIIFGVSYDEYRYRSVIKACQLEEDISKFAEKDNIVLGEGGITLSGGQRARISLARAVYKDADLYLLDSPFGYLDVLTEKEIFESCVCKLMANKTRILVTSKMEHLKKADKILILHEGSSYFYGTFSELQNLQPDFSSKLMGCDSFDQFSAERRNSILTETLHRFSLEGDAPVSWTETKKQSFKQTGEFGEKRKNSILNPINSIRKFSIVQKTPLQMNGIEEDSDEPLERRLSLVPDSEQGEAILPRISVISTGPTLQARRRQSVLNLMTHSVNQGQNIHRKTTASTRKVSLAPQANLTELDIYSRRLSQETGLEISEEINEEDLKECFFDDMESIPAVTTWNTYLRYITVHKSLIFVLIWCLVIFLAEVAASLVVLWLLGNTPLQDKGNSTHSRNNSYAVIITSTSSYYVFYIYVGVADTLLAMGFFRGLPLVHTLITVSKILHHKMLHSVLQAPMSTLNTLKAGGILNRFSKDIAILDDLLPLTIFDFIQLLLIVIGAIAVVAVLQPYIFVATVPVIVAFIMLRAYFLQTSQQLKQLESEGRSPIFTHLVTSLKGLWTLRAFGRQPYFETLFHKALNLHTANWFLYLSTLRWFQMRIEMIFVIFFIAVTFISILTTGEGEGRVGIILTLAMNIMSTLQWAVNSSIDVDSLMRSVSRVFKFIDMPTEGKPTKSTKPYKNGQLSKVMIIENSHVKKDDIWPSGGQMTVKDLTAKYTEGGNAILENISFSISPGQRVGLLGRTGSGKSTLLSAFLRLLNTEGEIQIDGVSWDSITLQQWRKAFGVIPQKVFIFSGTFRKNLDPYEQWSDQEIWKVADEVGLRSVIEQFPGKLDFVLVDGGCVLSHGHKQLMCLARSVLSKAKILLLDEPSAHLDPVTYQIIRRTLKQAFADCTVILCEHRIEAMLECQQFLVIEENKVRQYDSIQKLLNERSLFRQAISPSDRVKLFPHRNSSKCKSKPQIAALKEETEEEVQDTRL
Briefly: CFTR activity in Xenopus oocytes co-expressing CFTR and β2 adrenergic receptor. The following applies: 10 μM isoproterenol, β2AR co-expressed. Type of assay: cell-based. As for the experimental part: Oocyte studies. Xenopus laevis oocytes were harvested and injected as described (Donaldson, et al., J. Biol. Chem. 277:8338 (2002)). Defolliculated healthy stage V-VI oocytes were injected with 0.3 ng of cRNA of each ENaC subunit. Injected oocytes were kept in modified Barth's saline (in mM: 88 NaCl, 1 KCl, 2.4 NaHCO3, 0.3 Ca(NO3)2, 0.41 CaCl2, 0.82 MgSO4, and 15 HEPES, adjusted to pH 7.35 with Tris). Oocytes were studied 24 hr after injection using the two electrode voltage clamp technique as previously described (Donaldson, et al., J. Biol. Chem. 277:8338 (2002)). Oocytes were clamped at a holding potential of […]. The change in amiloride-sensitive whole cell current as an indicator of ENaC activity was determined by subtracting the corresponding current value measured in the presence of 10 μM amiloride from that measured before the application of amiloride.
In both cases, we co-expressed CFTR with the β2 adrenergic receptor (β2AR) which can be stimulated with isoproterenol to raise cAMP and stimulate CFTR (Uezono et al., Receptors Channels 1:233 (1993)).

A further assay deals with T3, αENaC (Homo sapiens, UniProt P37088).
T3 construct: expressed in transfected cells; host or cells: JME nasal epithelial cells (passaged, no endogenous ENaC), lentiviral vector pQCXIN
T3 sequence (P37088 1-669): T1 sequence (P37088 1-669)
Briefly: Texas red-SPLUNC1 binding assay on JME cells expressing yfp-αENaC. The following applies: polarized JME cells. Here is the method:
JME cells were incubated with varying concentrations of Texas red-labeled SPLUNC1 for 30 min followed by a 5× wash with PBS. After this time images were acquired with a Nikon Ti-S inverted microscope and were quantified to obtain specific and non-specific binding using Image J. Data were then fitted with a Hill Plot to obtain the Kd.
JME nasal epithelial cells express functional ENaCs (Tong et al., Am. J. Physiol. Lung Cell. Mol. Physiol. 287:L928 (2004)). However, this attribute is lost after several passages. Thus, passaged JME cells that no longer expressed ENaC were stably infected with a lentivirus containing yfp-αENaC or an empty vector as a control and the presence or absence of αENaC was confirmed using an antibody that was constructed “in-house” that was directed against αENaC (FIG. 8).
Recombinant SPLUNC1 was labeled with Texas red according to the manufacturer's instructions (Pierce) and was freshly labeled on the day of each binding experiment. […] After this time yfp (514 nm excitation) and Texas red fluorescence (590 nm excitation) were imaged under a 60× water objective on a Nikon Ti-S inverted microscope equipped with an Orca CCD camera (Hamamatsu) switchable filter wheels (Ludl). Background fluorescence was subtracted from all images and the mean thresholded intensity was quantified to obtain specific and non-specific binding using Image J.

Consider `N=C(N)NC(=O)c1nc(Cl)c(N)nc1N` [amiloride, reference compound], for which, on ENaC [1], the “increase of the transepithelial electrical resistance” value is recorded as roughly 33%. For the same molecule, the “reduction of the transepithelial voltage” value at ENaC [2] (n=12, FIG. 4 legend: 100 mM amiloride) is reported as 54%.

With aprotinin [reference compound], the “inhibition of trypsin activity” value with trypsin is listed as roughly 100%. Further, the “spontaneous BGAR-MCA cleavage on mucosal surfaces” value in the assay with serine proteases is listed as “inhibited”. In addition, the “rate of inhibition of the transepithelial voltage” value on ENaC [2] (rSPLUNC1 vs aprotinin addition, effects not additive) was “identical rates”.

On to `CC(C)NCC(O)c1ccc(O)c(O)c1` (centres unmarked) [isoproterenol, reference compound], for which, on CFTR, the CFTR activation result is “robustly activated”.

B1: Texas red-rSPLUNC1: recombinant SPLUNC1 labeled with Texas red (conjugate)
chain: QFGGLPVPLDQTLPLNVNPALPLSPTGLAGSLTNALSNGLLSGGLLGILENLPLLDILKPGGGTSGGLLGGLLGKVTSVIPGLNNIIDIKVTDPQLLELGLVQSPDGHRLYVTIPLGIKLQVNTPLVGASLLRLAVKLDITAEILAVRDKQERIHLVLGDCTHSPGSLQISLLDGLGPLPIQGLLDSLTGILNKVLPELVQGNVCPLVNEVLRGLDITLVHDIVNMLIHGLQFVIKV
modifications: left off: small tags and cut ends
What is called Kd is the concentration at which binding is half-saturated. As for B1, the Kd with αENaC (30 min incubation, Hill fit) worked out at 0.055 µg/mL. Moreover, the “specific (yfp-αENaC) binding vs non-specific (empty vector) binding” value with αENaC (binding isotherm) was “significantly greater and saturable”.
